Test results taken from publication PMC6243750, “Behavioral Evidence and Olfactory Reception of a Single Alarm Pheromone Component in Halyomorpha halys” (Frontiers in Physiology, 2018).

How the values were obtained:
H. halys = tested on: H. halys; set-up: method as in Zhang et al., 2014a; details: combined with tridecane; ref Zhang et al., 2014a; cited from earlier work
H. halys adults = test: Grouped dispersal (repellency) test; type: in vivo, Halyomorpha halys; details: 10 μg, 60 s
Procedure: A group test was performed first to assess the repellency of (E)-2-decenal to H. halys adults. In total, 10–20 adults were collected and moved into a plastic rearing box for 1 h to let the adults aggregate and rest before the test. A filter paper loaded with 10 μg (E)-2-decenal was then put into a syringe, and the volatile was released into the air at a distance of 1 cm from the aggregated H. halys adults. The test lasted for 60 s, and the number of dispersed H. halys were counted and recorded. n-Hexane was used as the control following the same protocol. In total, 10 replicates were performed for each treatment.

adult N. viridula = tested on: adult N. viridula; set-up: method as in Lockwood and Story, 1987; details: ref Lockwood and Story, 1987; cited from earlier work
entomopathogenic fungi = tested on: entomopathogenic fungi; set-up: method as in Weber et al., 2017b; details: ref Weber et al., 2017b; cited from earlier work
male and female H. halys = tested on: male and female H. halys; set-up: method as in Zhong et al., 2017; details: ref Zhong et al., 2017; cited from earlier work
H. halys OBP25 [1] = molecular target: T1, H. halys OBP25 (Halyomorpha halys, UniProt A0A1L2JGT3); test: Competitive fluorescence-binding assay with 1-NPN as probe
T1 sequence (A0A1L2JGT3 20-148): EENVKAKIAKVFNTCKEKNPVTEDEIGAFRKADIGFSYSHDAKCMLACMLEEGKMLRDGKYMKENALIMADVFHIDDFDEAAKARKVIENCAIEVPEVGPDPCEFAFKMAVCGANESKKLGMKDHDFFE
Procedure: (§1) Emission fluorescence spectra were measured on a HORIBA FluoromMax®-4 fluorescence spectrophotometer in a right-angle configuration with a 1 cm light path quartz cuvette. The protein was dissolved in 50 mM Tris-HCl buffer, pH 7.4, while all ligands used in binding experiments were used as 1 mM methanol solutions. The excitation wavelength was 337 nm, and the range of the scanning emission wavelength was 380–450 nm.
(§2) The binding abilities of the OBPs and (E)-2-decenal were later investigated. Fluorescence intensities were automatically subtracted from blank fluorescence values when harvested from instrument. The excitation wavelength was set at 337 nm, and the range of the scanning emission wavelength was 380–450 nm. First, 2 mL 50-mM Tris-HCl solution was added, and then the OBP and 1-NPN were added until the concentration was 2 μM. The highest stable fluorescence intensity was record. Then, we added the (E)-2-decenal, which was dissolved in methanol in the cuvette, and continued the titration from 2 μM until the fluorescence intensity was stable. The highest stable fluorescence intensity was recorded. Each OBP was tested three times. The dissociation constant was calculated based on the formula Kd = [IC50]/(1 + [1-NPN]/K1−NPN), where IC50 represents the (E)-2-decenal concentration when the fluorescence intensity of [OBP/1-NPN] declined to the half of the highest value, [1-NPN] represents the dissociative concentration of 1-NPN, and K1−NPN represents the dissociation constant of OBP/1-NPN.

H. halys OBP30 [2] = molecular target: T2, H. halys OBP30 (Halyomorpha halys, UniProt A0A1P8P1N8); test: as above
T2 sequence (A0A1P8P1N8 19-136): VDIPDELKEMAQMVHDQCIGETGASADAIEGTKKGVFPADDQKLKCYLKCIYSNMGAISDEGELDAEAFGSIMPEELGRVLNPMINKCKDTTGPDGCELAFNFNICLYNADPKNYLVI
Procedure: as §1, §2

H. halys OBP8 [3] = molecular target: T3, H. halys OBP8 (Halyomorpha halys, UniProt A0A1N7TMV1); test: as above
T3 sequence (A0A1N7TMV1 23-143): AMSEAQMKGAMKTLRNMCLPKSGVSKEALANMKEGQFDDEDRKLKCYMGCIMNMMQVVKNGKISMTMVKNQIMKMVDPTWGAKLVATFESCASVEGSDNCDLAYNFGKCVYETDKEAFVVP
Procedure: as §1, §2

H. halys OBP16 [4] = molecular target: T4, H. halys OBP16 (Halyomorpha halys, UniProt A0A1L2JGT7); test: as above
T4 sequence (A0A1L2JGT7 23-177): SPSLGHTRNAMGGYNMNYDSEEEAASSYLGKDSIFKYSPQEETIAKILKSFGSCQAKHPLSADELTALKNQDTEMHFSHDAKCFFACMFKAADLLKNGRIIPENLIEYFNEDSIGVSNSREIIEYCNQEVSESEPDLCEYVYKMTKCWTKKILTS
Procedure: as §1, §2

H. halys OBP4 [5] = molecular target: T5, H. halys OBP4 (Halyomorpha halys, UniProt A0A1L2JGP5); test: as above
T5 sequence (A0A1L2JGP5 20-212): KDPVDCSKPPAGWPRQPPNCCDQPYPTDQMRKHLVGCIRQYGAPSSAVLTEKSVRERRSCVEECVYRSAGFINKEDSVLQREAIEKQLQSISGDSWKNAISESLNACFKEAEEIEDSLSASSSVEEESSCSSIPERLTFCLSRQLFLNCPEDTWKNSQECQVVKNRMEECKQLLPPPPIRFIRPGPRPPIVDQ
Procedure: as §1, §2

[6] = tested on: H. halys adults and 1st to 5th instar nymphs; test: Route test with individual stink bugs on circular track; type: in vivo, Halyomorpha halys
Procedure: To identify the alarm pheromone activity in each developmental stage of H. halys (female and male adults, and 1st to 5th instar nymphs), we performed a behavioral test (Noge et al., [2015]) using a gradient of (E)-2-decenal solutions (10 μg/μl, 1 μg/μl, 100 ng/μl, 10 ng/μl, and 1 ng/μl) for the nymphs and the last four doses for both genders of adults. A circular track was made by joining the ends of a silicone tube (100 cm long, 1.2 cm inner diameter), and the track was placed on a tripod stand in the behavioral testing laboratory (25°C ± 1°C, relative humidity = 50% ± 10%). An individual H. halys was placed gently on the track and left for 5 min until it was motionless. Different 10-μl concentrations of (E)-2-decenal were loaded onto a filter paper disk (2 cm diameter), and the disk was then placed 2 mm from the stink bug's antenna. The time taken for the nymph or adult stink bug to change direction and the distance it moved away from the starting point within 15 s were observed and recorded. […] Every developmental stage of H. halys for each chemical treatment was tested 15 times.

H. halys antennae = test: EAG recordings on excised antennae; set-up: species or system Halyomorpha halys; details: 10 μg dose, all developmental stages, versus n-hexane control
Procedure: EAG recordings were used to identify electrophysiological activities of H. halys at each developmental stage (female and male adults, and nymphal larvae). Each antenna of the brown marmorated stink bug was prepared following the standard procedures of cutting its tip and base and immediately mounting the excised antenna between two glass capillary Ag/AgCl electrodes filled with Kaissling saline (Tang et al., [2016]). The electrode at the distal end of the antenna was connected through an interface box to a signal acquisition interface board (IDAD; Syntech, Netherlands).
n-Hexane was used as the control, and 1 μg/μl (E)-2-decenal was used as the test solution. The measure dose was 10 μg, and the order of antennal exposure was air, n-hexane, and (E)-2-decenal. In total, 10 replicates were used. The direct voltage was 2 mv, the continuous flow velocity was 150 ml/min, the stimulated flow velocity was 20 ml/min, the stimulation time was 0.1 s, and the stimulus intervals were 10 s.
The following equation was used to calculate the EAG recording result:
Relative response value = sample response value − control response value.

H. halys OBP25 [7] = molecular target: T1, H. halys OBP25; test: Fluorescence binding of probe 1-NPN to OBP (Scatchard); details: dissociation constant of OBP25/1-NPN, 2 μM OBP, 50 mM Tris-HCl pH 7.4; read-out: KOBPx/1-NPN
Procedure: as §1
(§3) The binding constants of OBPs with probe N-phenyl-1-naphtylamine (1-NPN) were determined. We first added 2 ml 50 mM Tris-HCl solution to the cuvette, then added the OBP until the concentration reached 2 μM, measured and recorded the emission spectrum, continued titration, and recorded the highest stable fluorescence intensity. The Scatchard equation was used to record the binding constant of each OPB with 1-NPN.

H. halys OBP30 [8] = molecular target: T2, H. halys OBP30; test: as above; details: dissociation constant of OBP30/1-NPN, 2 μM OBP, 50 mM Tris-HCl pH 7.4; read-out: KOBPx/1-NPN
Procedure: as §1, §3

H. halys OBP8 [9] = molecular target: T3, H. halys OBP8; test: as above; details: dissociation constant of OBP8/1-NPN, 2 μM OBP, 50 mM Tris-HCl pH 7.4; read-out: KOBPx/1-NPN
Procedure: as §1, §3

H. halys OBP16 [10] = molecular target: T4, H. halys OBP16; test: as above; details: dissociation constant of OBP16/1-NPN, 2 μM OBP, 50 mM Tris-HCl pH 7.4; read-out: KOBPx/1-NPN
Procedure: as §1, §3

H. halys OBP4 [11] = molecular target: T5, H. halys OBP4; test: as above; details: dissociation constant of OBP4/1-NPN, 2 μM OBP, 50 mM Tris-HCl pH 7.4; read-out: KOBPx/1-NPN
Procedure: as §1, §3

[12] = Kd = [IC50]/(1 + [1-NPN]/K1-NPN), OBP and 1-NPN 2 μM
[13] = concentration at which [OBP/1-NPN] fluorescence declined to half

Which feeding deterrence (H. halys) does the source give for `CCCCCCC/C=C/C=O` [(E)-2-decenal] here?
The feeding deterrence was “strong feeding deterrent”.

What about the Repellent rates (H. halys adults) of the same compound?
Its Repellent rates is 84.1 ± 5.14%.

What about the alarm effects (adult N. viridula) of the same compound?
Its alarm effects is “no alarm effects”.

What about the “effect on entomopathogenic fungi” value (entomopathogenic fungi) of the same compound?
Its value is “fungistatic effect and inhibits spore germination”.

And the “repellence in Y-tube assays” value (male and female H. halys)?
Its value is “strongly repel”.

And the Kd (H. halys OBP25 [1]; [12])?
Its Kd is 2.21 ± 0.064 µM.

What about the IC50 (H. halys OBP25 [1]; [13]) of the same compound?
The IC50 was 7.18 ± 0.21 µM.

And the Kd (H. halys OBP30 [2]; [12])?
Its Kd is 10.5 ± 0.64 µM.

And the IC50 (H. halys OBP30 [2]; [13])?
Its IC50 is 16.7 ± 1.01 µM.

What about the Kd (H. halys OBP8 [3]; [12]) of the same compound?
The Kd was 8.61 ± 0.24 µM.

And the IC50 (H. halys OBP8 [3]; [13])?
The IC50 was 13.7 ± 0.38 µM.

What about the Kd (H. halys OBP16 [4]; [12]) of the same compound?
Its Kd is 6.16 ± 0.42 µM.

What about the IC50 (H. halys OBP16 [4]; [13]) of the same compound?
The IC50 was 13.7 ± 0.94 µM.

And the “binding activity to (E)-2-decenal” value (H. halys OBP4 [5]; OBP4, in words)?
The value was “did not show a good binding activity”.

And the Kd (H. halys OBP4 [5]; OBP4, Kd = [IC50]/(1 + [1-NPN]/K1-NPN), OBP and 1-NPN 2 μM)?
Its Kd is 26 ± 3.01 µM.

And the IC50 (H. halys OBP4 [5]; OBP4, concentration at which [OBP/1-NPN] fluorescence declined to half)?
Its IC50 is 31.3 ± 3.61 µM.

What about the “repellence compared with n-hexane control” value ([6]; 1 μg and 10 μg, all stages of H. halys) of the same compound?
The value was “significantly repelled”.

And the “moving distances compared with n-hexane control” value ([6]; 3rd to 5th instar nymphs, all tested doses, within 15 s)?
The value was “significantly longer moving distances”.

And the “repellent effect starting at a tested dose” value ([6]; 5th instar nymphs, response time)?
The value was 10 ng.

What about the EAG responses (H. halys antennae) of the same compound?
Its EAG responses is “significantly greater electrophysiological responses compared with the n-hexane control, except for the 1st instar nymphs”.

Which results are given for `c1ccc(Nc2cccc3ccccc23)cc1` [1-NPN, N-phenyl-1-naphtylamine]?
Kd (H. halys OBP25 [7]): 0.51 ± 0.3 µM; Kd (H. halys OBP30 [8]): 2.79 ± 0.74 µM; Kd (H. halys OBP8 [9]): 2.74 ± 0.8 µM; Kd (H. halys OBP16 [10]): 1.13 ± 0.08 µM; Kd (H. halys OBP4 [11]): 9.18 ± 2.67 µM
